In patent US20190029252A1, “Use of Herbicide-tolerant Protein” (BEIJING DABEINONG TECHNOLOGY GROUP CO., LTD., priority 2016, published 2019):

Key:
Assay type in all cases: in vivo
[1] = tested on: At chloroplastic ALT-1-01 T1 plants; experiment: Herbicide tolerance of Arabidopsis thaliana T1 plants, sprayed, resistance classes counted 14 days after spraying; conditions: sprayed at 1-fold field concentration
Source text: (§1) T1 transformants were initially selected from the background of untransformed seeds using a glufosinate selection scheme. About 40000 T1 seeds were screened, and 380 T1 positive transformants (PAT gene) were identified with a transformation efficiency of about 0.95%. The plants that were transformed with the recombinant expression vector DBN100632 were Arabidopsis thaliana plants having an ALT-1-01 nucleotide sequence located in the cytoplasm introduced (At cytoplasmic ALT-1-01), and the plants that were transformed with the recombinant expression vector DBN100631 were Arabidopsis thaliana plants having an ALT-1-01 nucleotide sequence located in the chloroplast introduced (At chloroplastic ALT-1-01); the plants that were transformed with the recombinant expression vector DBN100634 were Arabidopsis thaliana plants having an ALT-2-01 nucleotide sequence located in the cytoplasm introduced (At cytoplasmic ALT-2-01), and the plants that were transformed with the recombinant expression vector DBN100633 were Arabidopsis thaliana plants having an ALT-2-01 nucleotide sequence located in the chloroplast introduced (At chloroplastic ALT-2-01); and the plants that were transformed with the recombinant expression vector DBN100636 were Arabidopsis thaliana plants having an ALT-3-01 nucleotide sequence located in the cytoplasm introduced (At cytoplasmic ALT-3-01), and the plants that were transformed with the recombinant expression vector DBN100635 were Arabidopsis thaliana plants having an ALT-3-01 nucleotide sequence located in the chloroplast introduced (At chloroplastic ALT-3-01).
(§2) Plants were counted for the resistance situations 14 days after spraying: those having a consistent growth status with the blank solvent (water) group after 14 days were classified as highly resistant plants, those having a bolting height less than ½ of that of the blank solvent (water) group after 14 days were classified as moderately resistant plants, those still not capable of bolting after 14 days were classified as poorly resistant plants, and those dead after 14 days were classified as non-resistant plants. Since each Arabidopsis thaliana T1 plant was an independent transformation event, a significant difference in individual T1 responses could be expected at a given dose.
as §2, with “situation” for “situations”

[2] = tested on: At chloroplastic ALT-2-01 T1 plants; experiment: as above; conditions: sprayed at 1-fold field concentration
Source text: as §1, §2
as §2, with “situation” for “situations”

[3] = tested on: At chloroplastic ALT-3-01 T1 plants; experiment: as above; conditions: sprayed at 1-fold field concentration
Source text: as §1, §2
as §2, with “situation” for “situations”

[4] = tested on: At cytoplasmic ALT-1-01 T1 plants; experiment: as above; conditions: sprayed at 1-fold field concentration
Source text: as §1, §2
as §2, with “situation” for “situations”

[5] = tested on: At cytoplasmic ALT-2-01 T1 plants; experiment: as above; conditions: sprayed at 1-fold field concentration
Source text: as §1, §2
as §2, with “situation” for “situations”

[6] = tested on: At cytoplasmic ALT-3-01 T1 plants; experiment: as above; conditions: sprayed at 1-fold field concentration
Source text: as §1, §2
as §2, with “situation” for “situations”

[7] = tested on: wild-type Arabidopsis thaliana plants; experiment: Herbicide tolerance of Arabidopsis thaliana plants, sprayed, resistance classes counted 14 days after spraying
Source text: as §1, §2
as §2, with “situation” for “situations”

[8] = tested on: Zm chloroplastic ALT-1-02 maize plants; experiment: Tribenuron-methyl tolerance of maize plants, damage degree after spraying; conditions: 72 g ai/ha (4-fold field concentration)
Method: (§3) The damage degree caused by the herbicide was measured for each plant according to the plant growth status 3 days after spraying (3 DAT), 7 days after spraying (7 DAT), 14 days after spraying (14 DAT) and 21 days after spraying (21 DAT), respectively: considering a growth status equivalent to that of the untreated plants as having a damage degree of 0%; considering conditions of leaves being partially chlorotic and yellow but substantially not affecting the plant normal growth as having a damage degree of 50%; and considering the whole plant being purple and dying as having a damage degree of 100%. There were 2 strains in Zm cytoplasmic ALT-1-02 maize plants in total (S13 and S14), 2 strains in Zm chloroplastic ALT-1-02 maize plants in total (S15 and S16), 2 strains in Zm cytoplasmic ALT-2-02 maize plants in total (S17 and S18), 2 strains in Zm chloroplastic ALT-2-02 maize plants in total (S19 and S20), 2 strains in Zm cytoplasmic ALT-3-02 maize plants in total (S21 and S22), 2 strains in Zm chloroplastic ALT-3-02 maize plants in total (S23 and S24), and 1 strain in wild-type maize plants (CK2) in total; and 10-15 plants were selected from each strain and tested.

[9] = tested on: Zm chloroplastic ALT-2-02 maize plants; experiment: as above; conditions: 72 g ai/ha (4-fold field concentration)
Method: as §3

[10] = tested on: Zm cytoplasmic ALT-2-02 maize plants; experiment: as above; conditions: 72 g ai/ha (4-fold field concentration)
Method: as §3

[11] = tested on: transgenic maize plants (ALT-1, ALT-2 and ALT-3); experiment: Tribenuron-methyl tolerance of transgenic maize plants, overall conclusion; conditions: 72 g ai/ha
Method: as §3

[12] = wild-type, sprayed at 1-fold field concentration, 14 days after spraying
[13] = maize strain S15 (Zm chloroplastic ALT-1-02)
[14] = maize strain S16 (Zm chloroplastic ALT-1-02)
[15] = maize strain S19 (Zm chloroplastic ALT-2-02)
[16] = maize strain S20 (Zm chloroplastic ALT-2-02)
[17] = maize strain S17 (Zm cytoplasmic ALT-2-02)
[18] = maize strain S18 (Zm cytoplasmic ALT-2-02)

COC(=O)c1ccccc1S(=O)(=O)NC(=O)N(C)c1nc(C)nc(OC)n1 [tribenuron-methyl, methyl 2-[N-(4-methoxy-6-methyl-1,3,5-triazin-2-yl)-N-methylaminoformamidosulfonyl]benzoate]
Highly resistant (number of plants) [1]: 28
Moderately resistant (number of plants) [1]: 0
Non-resistant (number of plants) [1]: 2
Poorly resistant (number of plants) [1]: 0
Highly resistant (number of plants) [2]: 29
Moderately resistant (number of plants) [2]: 0
Non-resistant (number of plants) [2]: 1
Poorly resistant (number of plants) [2]: 1
Highly resistant (number of plants) [3]: 27
Moderately resistant (number of plants) [3]: 0
Non-resistant (number of plants) [3]: 2
Poorly resistant (number of plants) [3]: 0
Highly resistant (number of plants) [4]: 24
Moderately resistant (number of plants) [4]: 2
Non-resistant (number of plants) [4]: 1
Poorly resistant (number of plants) [4]: 1
Highly resistant (number of plants) [5]: 25
Moderately resistant (number of plants) [5]: 1
Non-resistant (number of plants) [5]: 3
Poorly resistant (number of plants) [5]: 1
Highly resistant (number of plants) [6]: 22
Moderately resistant (number of plants) [6]: 1
Non-resistant (number of plants) [6]: 3
Poorly resistant (number of plants) [6]: 1
herbicide tolerance (in words) ([7]; wild-type Arabidopsis thaliana plants, 18 g ai/ha): none of the wild-type Arabidopsis thaliana plants was tolerant
Highly resistant (number of plants) [7, 12]: 0
Moderately resistant (number of plants) [7, 12]: 0
Non-resistant (number of plants) [7, 12]: 32
Poorly resistant (number of plants) [7, 12]: 0
Average damage % 3DAT [8, 13]: 0%
Average damage % 7DAT [8, 13]: 0%
Average damage % 14DAT [8, 13]: 0%
Average damage % 21DAT [8, 13]: 0%
Average damage % 3DAT [8, 14]: 0%
Average damage % 7DAT [8, 14]: 0%
Average damage % 14DAT [8, 14]: 0%
Average damage % 21DAT [8, 14]: 0%
Average damage % 3DAT [9, 15]: 0%
Average damage % 7DAT [9, 15]: 0%
Average damage % 14DAT [9, 15]: 0%
Average damage % 21DAT [9, 15]: 0%
Average damage % 3DAT [9, 16]: 0%
Average damage % 7DAT [9, 16]: 0%
Average damage % 14DAT [9, 16]: 0%
Average damage % 21DAT [9, 16]: 0%
Average damage % 3DAT [10, 17]: 6%
Average damage % 7DAT [10, 17]: 0%
Average damage % 14DAT [10, 17]: 0%
Average damage % 21DAT [10, 17]: 0%
Average damage % 3DAT [10, 18]: 5%
Average damage % 7DAT [10, 18]: 0%
Average damage % 14DAT [10, 18]: 0%
Average damage % 21DAT [10, 18]: 0%
herbicide tolerance conferred by thifensulfuron hydrolase (in words) [11]: a high level of tribenuron-methyl herbicide tolerance
